Data as given in patent US9709557B2, “Anthraquinone based near IR emitting compounds and uses thereof” (LIFE TECHNOLOGIES CORPORATION, priority 2008, dated 2017).

Assays:
Live Jurkat cells [1] = experiment: DNA staining of live cells, 15 minute incubation, MODFIT analysis (Example 47); format: cell-based, human; conditions: 1.25, 2.5, 5, 10 μM, 37° C. and room temperature, 15 min
Description: Live Jurkat cells are suspended at 5×10^5 cells/ml in RPMI media Compound 9 is added to each of one mL cell suspensions at final concentrations 1.25 μM, 2.5 μM, 5 μM, and 10 μM and then incubated at 37° C. and room temperature for 15 minutes while protected from light. Cells are run through the Becton Dickinson (BD) LSRII Flow Cytometer. Forward Scatter (FS) versus Side Scatter (SS) dual parameter plot is used to gate main cell population. Fluorescence is collected using two lasers: the 488 nm excitation laser with 695/40 bandpass emission filter, and using the 633 nm excitation laser with 695/40 bandpass emission filters, collecting 10,000 events at flow rate of ˜200 events/second. The data is further analyzed using MODFIT LT Flow Cytometry Modeling Software from Verity Software House, Inc. to look at ratio of G2/G1 and the % CV of G1 phase.

[2] = test system: U-2 OS cells (ATCC HTB-96); experiment: Imaging of cells stained with near-IR DNA stain (Example 48); format: cell-based; conditions: 20 μM, live, fixed or simultaneously fixed cells
Description: Live U-2 OS cells (ATCC HTB-96) were treated with Compound 9 under various conditions and imaged with a 10×/0.3 objective on an ArrayScan VTI automated microscope platform (ThermoFisher/Cellomics). […] Such staining patterns have been routinely utilized in auto-focus and cell identification in automated microscopy. Cells were fixed with 3.7% formaldehyde (diluted from Sigma F1635) in the presence of 20 μM Compound 9 for 30 minutes at room temperature. The fixed cells were imaged and show similar prominent nuclear and dim cytosolic labeling (FIG. 4).

Live Jurkat cells [3] = experiment: Evaluation of cell health after DNA staining, ImageStream imaging flow cytometer (Example 39); format: cell-based; conditions: 5 μM, 37° C., 30 min
Text: An ImageStream multispectral imaging flow cytometer is used to evaluate the live, apoptotic and mitotic rate of cycling Jurkat cells labeled with a compound of the invention (e.g., Compound 9 or a salt thereof). The platform produces high resolution brightfield, darkfield, and fluorescence images of cells prepared in suspension. IDEA analysis software I is used to quantify morphometric and photometric parameters for each cell based on the imaged collected. This technology combines the quantitative power of large sample sizes common to flow cytometry with the high information content present in microscopic images.
Live Jurkat cells are suspended at 5×10^5 cells/ml in each RPMI media with 10% FBS. The compound (in 5 mM DMSO) is added at a concentration of 5 μM and then the cells are incubated at 37° C. for 30 minutes while protected from light before acquiring on the ImageStream cytometer using 658 nm excitation and >660 nm emission. Apoptotic, mitotic, and interphase Jurkat cells are distinguished from each other using a combination of scatter, DNA intensity, and morphology-based parameters. Apoptotic cells with high laser scatter properties are gated on the Mean Pixel SSC histogram. Low scatter apoptotic events with low DNA content or textured nuclei are identified on the dye intensity versus bright detail intensity plot. […]

[4] = test system: Jurkat cells fixed in 70% cold ethanol; experiment: Staining of fixed cells, DNA content cell cycle by flow cytometry (Example 41); format: cell-based, human; conditions: 5 μM, PBS, room temperature 30 min
Description: Live Jurkat cells are fixed 70% cold ethanol and stored at −20° C. for one month. The cells are the washed in phosphate buffered saline (PBS) and resuspended in PBS at 5×10^5 cells/ml. Cells are labeled with a 5 μM solution of a compound according to the invention (e.g., Compound 9 or a salt thereof) at room temperature for 30 minutes and then run through two flow cytometers: A BD LSRII using 488 nm excitation and 695/40 nm emission and an Accuri C6 using 488 nm excitation and >670 nm emission, collecting 10,000 events at low flow rate. Markers are placed on the G0G1 and G2M peaks to look at % CV of the G0G1 peak and the ratio of G2M/G0G1.

Live Jurkat cells [5] = experiment: DNA staining of live cells (diluted samples), cell cycle analysis by flow cytometry (Example 38); format: cell-based, human
Description: Aliquots of a compound of the invention (e.g., Compound 9 or a salt thereof) are diluted to a concentration of 5 mM in de-ionized water (DI) or in DMSO. Live Jurkat cells are suspended at 5×10^5 cells/ml in each RPMI media with 10% FBS. Compound from each solution (DI and DMSO) is added to each of one mL cell suspensions at a concentration 5 μM and then incubated at 37° C. for 30 minutes while protected from light. Cells are run through a Becton Dickinson (BD) LSRII Flow Cytometer. Forward Scatter (FS) versus Side Scatter (SS) dual parameter plot is used to gate main cell population. Fluorescence is collected using two lasers: the 488 nm excitation laser with 695/40, and 780/60 bandpass emission filter, and using the 633 nm excitation laser with 780/60, 710/50, and 660/20 bandpass emission filters. Fluorescence is also collected with the 488 nm laser and the 530/30 and 575/26 bandpass emission filters to observe for any fluorescence spillover in these detectors. Collection of at least 10,000 events is performed at a flow rate of ˜200 events/second. The data is analyzed to evaluate the ratio of G2/G1 and the % CV of G1 phase, as described herein. Compound 9 was evaluated using the described procedures and was effective as a DNA stain for use in DNA cell cycle analysis. The compound was excited by both lasers with emission in the far red and near-IR regions of the spectrum. […] Table 2 summarizes data for live Jurkat cells suspended in RPMI media+10% FBS treated with 5 μM Compound 9 (as a 5 mM DMSO or DI solution).

Live Jurkat cells [6] = experiment: DNA staining of live cells treated with RNase (Example 37); format: cell-based, human; conditions: 5 μM and 10 μM, 37° C. or room temperature, 30 min
Description: Live Jurkat cells (human T-lymphocyte) were stained with Compound 9 with and without RNase treatment to assess DNA selectivity of the compound. Live Jurkat cells were suspended at 5×10^5 cells/ml in each RPMI media with 10% FBS. The dye was added to each of one mL cell suspensions at concentrations 5 μM and 10 μM. Duplicate conditions (dye concentration and incubation temperature) were tested. RNase was added to one test and incubated along with the dye. The other test was left untreated (no RNase present). The samples were incubated at 37° C. or room temperature for 30 minutes while protected from light. Cells were run through a Becton Dickinson (BD) LSRII Flow Cytometer, as described in Example 36.

[7] = Accuri C6, 488 nm excitation, >670 nm
[8] = BD LSRII, 488 nm excitation, 695/40

`CN(C)CCNC(=O)CNc1ccc(O)c2c1C(=O)c1c(O)ccc(N)c1C2=O` [Compound 9] was tested, and the “% CV of G1-phase” value (Live Jurkat cells [1]) was less than 8%, the “staining pattern” value [2] was “prominent nuclear and relatively dim cytsolic staining” and the “cells dead following incubation with the dye” value (Live Jurkat cells [3]) was 7.1%. For the same compound, the “mitotic cells as share of the live cell population” value (Live Jurkat cells [3]) was 1.9%, the “% CV of the G0G1 peak” value [4, 7] was 5.9% and the “ratio of G2M/G0G1” value [4, 7] was 1.85. The “% CV of the G0G1 peak” value [4, 8] was 6.0%, the “ratio of G2M/G0G1” value [4, 8] was 1.83 and the G2/G1 ratio (Live Jurkat cells [5]; 5 μM from 5 mM DI solution, 488 + 695/40) was 1.89. The G2/G1 ratio (Live Jurkat cells [5]; 5 μM from 5 mM DI solution, 633 + 710/50) was 1.85, the G2/G1 ratio (Live Jurkat cells [5]; 5 μM from 5 mM DMSO solution, 488 + 695/40) was 1.88 and the G2/G1 ratio (Live Jurkat cells [5]; 5 μM from 5 mM DMSO solution, 633 + 710/50) was 1.85. For the same compound, the “% CV of G1-phase” value (Live Jurkat cells [5]; 5 μM, all samples and conditions, MODFIT) was less than 8% and the “DNA selectivity, staining with and without RNase” value (Live Jurkat cells [6]) was “DNA selective”.
